Laboratory results published in PubChem BioAssay (NCI).
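48-hour exposure; five concentrations; linearly interpolated endpoints. TGI marks complete inhibition of growth.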

What was measured:
Test in all cases: NCI-60 cell line screen, 48 h
[1] = system: EKVX NSCLC
[2] = system: HCC-2998 colon
[3] = system: CAKI-1 renal
[4] = system: UO-31 renal
[5] = system: MALME-3M melanoma
[6] = system: TK-10 renal
[7] = system: MDA-MB-231 breast
[8] = system: K-562 leukemia
[9] = system: CCRF-CEM leukemia
[10] = system: HCT-116 colon
[11] = system: SF-268 CNS
[12] = system: MOLT-4 leukemia
[13] = system: A498 renal
[14] = system: U251 CNS
[15] = system: 786-0 renal
[16] = system: OVCAR-3 ovarian
[17] = system: NCI-H23 lung
[18] = system: HOP-92 NSCLC
[19] = system: SK-OV-3 ovarian
[20] = system: SR leukemia
[21] = system: OVCAR-4 ovarian
[22] = system: SK-MEL-28 melanoma
[23] = system: SNB-75 CNS
[24] = system: HT29 colon
[25] = system: DU-145 prostate
[26] = system: LOX IMVI melanoma
[27] = system: COLO 205 colon
[28] = system: SNB-19 CNS
[29] = system: UACC-257 melanoma
[30] = system: SF-295 CNS
[31] = system: SK-MEL-5 melanoma
[32] = system: KM12 colon
[33] = system: ACHN renal
[34] = system: NCI/ADR-RES ovarian
[35] = system: SK-MEL-2 melanoma
[36] = system: SN12C renal
[37] = system: HOP-62 NSCLC
[38] = system: RXF 393 renal
[39] = system: OVCAR-5 ovarian
[40] = system: OVCAR-8 ovarian
[41] = system: NCI-H226 lung
[42] = system: BT-549 breast
[43] = system: IGROV1 ovarian
[44] = system: UACC-62 melanoma
[45] = system: NCI-H460 lung
[46] = system: NCI-H522 lung
[47] = system: HS 578T breast
[48] = system: MCF7 breast
[49] = system: HCT-15 colon
[50] = system: MDA-MB-435
[51] = system: A549 NSCLC
[52] = system: HL-60(TB) leukemia
[53] = system: MDA-N
[54] = system: SF-539 CNS
[55] = system: M14 melanoma
[56] = system: RPMI-8226 leukemia
[57] = system: T-47D breast
[58] = system: PC-3 prostate
[59] = system: SW-620 colon

Measured: TGI

O=C1NC(SSC2=NNC3(C(=O)N2)c2ccccc2-c2ccccc23)=NNC12c1ccccc1-c1ccccc12
> 10 µM: [1] | [2] | [3] | [4] | [5] | [6] | [7] | [8] | [9] | [10] | [11] | [12] | [13] | [14] | [15] | [16] | [17] | [18] | [19] | [20] | [21] | [22] | [23] | [24] | [25] | [26] | [27] | [28] | [29] | [30] | [31] | [32] | [33] | [34] | [35] | [36] | [37] | [38] | [39] | [40] | [41] | [42] | [43] | [44] | [45] | [46] | [47] | [48] | [49] | [50] | [51] | [52] | [53] | [54] | [55] | [56] | [57] | [58] | [59]
